From article PMC12217461 (Antimicrobial Agents and Chemotherapy, 2025)

Tests used:
Format in all cases: cell-based
[1] = system: Escherichia coli ATCC 25922; assay: microbe, parasite or virus in culture; conditions: ATCC25922, QC 3, no acquired β-lactamase, TAN/XER fixed at 4 µg/mL, XER 8 µg/mL in MEM-XER, read-out: Minimal inhibitory concentration
Procedure: (§1) To assess the inhibitory potency of XER, susceptibility testing was performed by broth microdilution method, determining the minimal inhibitory concentrations (MICs) of different antibiotics or antibiotic plus β-lactamase inhibitor combinations, including cefepime (FEP), imipenem (IPM), meropenem (MEM), and their combinations with XER (FEP-XER, IPM-XER, and MEM-XER). All data obtained with XER-based combinations were compared with data with TAN-based combinations, FEP-TAN, IPM-TAN, and MEM-TAN ([16]). FEP was purchased from Sigma-Aldrich (Saint-Louis, USA), whereas MEM was from HuiChem (Shanghai, China). […] MICs were determined in triplicate in cation-adjusted Mueller-Hinton (MH) broth (Bio-Rad, Marnes-la-Coquette, France) according to the CLSI guidelines ([53]). The results were interpreted according to the decrease in MIC value for the same antibiotic or combination of the corresponding recombinant strain producing the MBL enzyme. […] In a recent phase I clinical evaluation, XER was combined with cefiderocol. However, as this latter β-lactam substrate is known to be poorly hydrolyzed by IMP enzymes, it was not considered for the evaluation of XER inhibitory activity in this study. Instead, carbapenems were used as a substrate to evaluate the β-lactamase IMP activity in the presence or absence of XER and TAN, as it was deemed more specific for the IMP carbapenemase activity.

[2] = system: Escherichia coli NCTC 13353; assay: microbe, parasite or virus in culture; conditions: NCTC13353, read-out: Minimal inhibitory concentration
Procedure: as §1

[3] = system: Klebsiella pneumoniae ATCC BAA-2814; assay: microbe, parasite or virus in culture; conditions: ATCCBAA2814, read-out: Minimal inhibitory concentration
Procedure: as §1

P. aeruginosa ATCC 27853 = assay: microbe, parasite or virus in culture; conditions: Pseudomonas aeruginosa, ATCC27853; QC 4; no acquired β-lactamase; TAN/XER fixed at 4 µg/mL, XER 8 µg/mL in MEM-XER; read-out: Minimal inhibitory concentration
Procedure: as §1

C. freundii SMART 315 = assay: microbe, parasite or virus in culture; conditions: Citrobacter freundii, SMART315; IMP-4, CTX-M-9; TAN/XER fixed at 4 µg/mL, XER 8 µg/mL in MEM-XER; read-out: Minimal inhibitory concentration
Procedure: (§2) Most isolates and their respective β-lactamase content were characterized by whole-genome sequencing.
as §1

[4] = system: Enterobacter hormaechei (cluster III) SMART 271; assay: microbe, parasite or virus in culture; conditions: read-out: Minimal inhibitory concentration
Procedure: as §2, §1

[5] = system: Escherichia coli SMART 1132; assay: microbe, parasite or virus in culture; conditions: SMART1132, IMP-6, CTX-M-2, TAN/XER fixed at 4 µg/mL, XER 8 µg/mL in MEM-XER, read-out: Minimal inhibitory concentration
Procedure: as §2, §1

[6] = system: Escherichia coli SMART 640; assay: microbe, parasite or virus in culture; conditions: SMART640, IMP-14, CTX-M-27, OXA-10, TAN/XER fixed at 4 µg/mL, XER 8 µg/mL in MEM-XER, read-out: Minimal inhibitory concentration
Procedure: as §2, §1

[7] = system: Klebsiella pneumoniae SMART 1131; assay: microbe, parasite or virus in culture; conditions: SMART1131, IMP-6, CTX-M-2, TAN/XER fixed at 4 µg/mL, XER 8 µg/mL in MEM-XER, read-out: Minimal inhibitory concentration
Procedure: as §2, §1

[8] = system: Klebsiella pneumoniae SMART 1133; assay: microbe, parasite or virus in culture; conditions: SMART1133, IMP-1, CTX-M-2, TAN/XER fixed at 4 µg/mL, XER 8 µg/mL in MEM-XER, read-out: Minimal inhibitory concentration
Procedure: as §2, §1

[9] = system: Klebsiella pneumoniae SMART 1134; assay: microbe, parasite or virus in culture; conditions: IMP-34, CTX-M-2, TAN/XER fixed at 4 µg/mL, XER 8 µg/mL in MEM-XER; for MIC: Klebsiella pneumoniae, SMART1134, read-out: Minimal inhibitory concentration
Procedure: as §2, §1

[10] = system: Klebsiella pneumoniae SMART 651; assay: microbe, parasite or virus in culture; conditions: SMART651, read-out: Minimal inhibitory concentration
Procedure: as §2, §1

[11] = system: Pseudomonas aeruginosa C7; assay: microbe, parasite or virus in culture; conditions: IMP-7, TAN/XER fixed at 4 µg/mL, XER 8 µg/mL in MEM-XER, read-out: Minimal inhibitory concentration
Procedure: as §2, §1

[12] = system: Pseudomonas aeruginosa PA11; assay: microbe, parasite or virus in culture; conditions: IMP-10, TAN/XER fixed at 4 µg/mL, XER 8 µg/mL in MEM-XER, read-out: Minimal inhibitory concentration
Procedure: as §2, §1

[13] = system: Pseudomonas aeruginosa PA16; assay: microbe, parasite or virus in culture; conditions: IMP-29, TAN/XER fixed at 4 µg/mL, XER 8 µg/mL in MEM-XER, read-out: Minimal inhibitory concentration
Procedure: as §2, §1

E. coli IMP-34 = assay: MIC broth microdilution, recombinant E. coli; conditions: Escherichia coli, IMP34; IMP-1-like, E126G; TAN/XER fixed at 4 µg/mL, XER 8 µg/mL in MEM-XER; read-out: Minimal inhibitory concentration
Source text: (§3) Genes encoding different acquired IMP-like enzymes suspected to be resistant to XER (blaIMP-6, blaIMP-7, blaIMP-10, blaIMP-14, blaIMP-26, blaIMP-34, and blaIMP-59) were amplified by PCR, and corresponding amplicons were cloned into plasmid pUCP24 and expressed in E. coli TOP10. The following recombinant E. coli strains producing IMP-1, IMP-4, IMP-19, and NDM-1 were used from a previous study ([16]). […] For that purpose, a list of primers was designed and provided as Table S1. […] The nomenclature used in this study was according to the BBL sequence numbering ([52]).
as §1

E. coli IMP-7 = assay: MIC broth microdilution, recombinant E. coli; conditions: Escherichia coli, IMP7; IMP-7-like; TAN/XER fixed at 4 µg/mL, XER 8 µg/mL in MEM-XER; read-out: Minimal inhibitory concentration
Source text: as §3, §1

| SMILES | MIC [1] | MIC [2] | MIC [3] | MIC (P. aeruginosa ATCC 27853) | MIC (C. freundii SMART 315) | MIC [4] | MIC [5] | MIC [6] | MIC [7] | MIC [8] | Minimal inhibitory concentration [9] | MIC [9] | MIC [10] | MIC [11] | MIC [12] | MIC [13] | MIC (E. coli IMP-34) | MIC (E. coli IMP-7) |
| --- | --- | --- | --- | --- | --- | --- | --- | --- | --- | --- | --- | --- | --- | --- | --- | --- | --- | --- |
| C[C@@H](O)[C@H]1C(=O)N2C(C(=O)O)=C(S[C@@H]3CN[C@H](C(=O)N(C)C)C3)[C@H](C)[C@H]12 [MEM, meropenem] | ≤ 0.25 µg/mL | ≤ 0.25 µg/mL | 64 µg/mL | 0.5 µg/mL | 2 µg/mL | 0.5 µg/mL | 4 µg/mL | 4 µg/mL | 8 µg/mL | 64 µg/mL | 8 µg/mL | 16 µg/mL | 8 µg/mL | 256 µg/mL | > 256 µg/mL | 32 µg/mL | 2 µg/mL | 2 µg/mL |
| C[C@@H](O)[C@H]1C(=O)N2C(C(=O)O)=C(SCCN=CN)C[C@H]12 [IPM, imipenem] | ≤ 0.25 µg/mL | ≤ 0.25 µg/mL | 16 µg/mL | 1 µg/mL | ≤ 0.25 µg/mL | 0.5 µg/mL | ≤ 0.25 µg/mL | 0.5 µg/mL | ≤ 0.25 µg/mL | 128 µg/mL |  | 0.5 µg/mL | 1 µg/mL | 128 µg/mL | 256 µg/mL | 16 µg/mL | 0.5 µg/mL | 0.25 µg/mL |
| CO/N=C(\C(=O)N[C@@H]1C(=O)N2C(C(=O)[O-])=C(C[N+]3(C)CCCC3)CS[C@H]12)c1csc(N)n1 [FEP, cefepime] | ≤ 0.25 µg/mL | 256 µg/mL | > 256 µg/mL | 1 µg/mL | 16 µg/mL |  | 128 µg/mL | 128 µg/mL | 64 µg/mL | > 256 µg/mL |  | 256 µg/mL | 64 µg/mL | > 256 µg/mL | > 256 µg/mL | 16 µg/mL |  |  |
